Columns and labels:
HIVIIIB [1] = assay: HIV-1 replication in MT2 cell line without human serum (RT activity in supernatant); format: cell-based; settings: MT2 cells, day 5 after infection, average if tested more than once, read-out: MT2 (HIVIIIB) IC50 range
Procedure: HIV-1 Replication in MT2 cell line with and without 30% human serum: The cells are infected at a Multiciplicity of Infection (MOI) of 0.5 for 3 h and then washed twice with complete media to remove residual virus. Cells are then resuspended at 0.5×10^6/ml in complete medium (RPMI, 10% FBS, 1% sodium pyruvate), and seeded into 96-well plates (6.25×10^4/well). The cells are cultured in the presence or absence of various concentrations of test compounds in serial dilutions for 3 days at 37° C. The test compounds are serially diluted in complete medium supplemented or not with 30% human serum. After 3 days, 100 μL of cultured medium with cells are replaced with 120 μL of freshly diluted test compounds in complete medium containing or not 30% Human serum. The level of HIV-1 replication is determined at days 5 after infection by the presence of viral RT activity in harvested supernatant fluid. The IC50 values for the virus replication are determined by using GRAPHPAD PRISM software.
The IC50 of the compounds tested in accordance with the HIV replication activity assay MT2 (HIVIIIB) with or without human serum are represented in Table 6.

HIVIIIB [2] = assay: HIV-1 replication in MT2 cell line with 30% human serum (RT activity in supernatant); format: cell-based; settings: MT2 cells, day 5 after infection, average if tested more than once, read-out: MT2 (HIVIIIB) with human serum IC50 range
[3] = Human immunodeficiency virus 1, 120 h

Row | SMILES | IC50 (HIVIIIB [1]; [3]) | IC50 (HIVIIIB [2]; [3]) | IC50 (HIVIIIB [1]) | IC50 (HIVIIIB [2])
1 | C=C(C)[C@@H]1CC[C@]2(NC(=O)OC)CC[C@]3(C)[C@H](CC[C@@H]4[C@@]5(C)CC[C@H](OC(=O)CC(C)(C)C(=O)O)C(C)(C)[C@@H]5CC[C@]43C)[C@@H]12 [Cpd 14-1, 3β-O-(3′,3′-Dimethylsuccinyl)-17β-methoxycarbonylamino-28-norlup-20(29)-ene] | < 199 nM | < 199 nM | – | –
2 | CC(=O)NC12CCC(C(C)C)C1C1CCC3C4(C)CCC(OC(=O)CC(C)(C)C(=O)O)C(C)(C)C4CCC3(C)C1(C)CC2 (stereo not drawn) [Cpd 22-1, 3β-O-(3′,3′-Dimethylsuccinyl)-17β-acetylamino-28-norlupane] | – | – | < 199 nM | < 199 nM

Reference: patent publication US20110077251A1, “NOVEL 17 BETA LUPANE DERIVATIVES” (priority 2009, published 2011)
